Measured values reported in patent US20240327709A1, “NON-LAMELLAR LIQUID CRYSTAL-FORMING COMPOSITION AND USE THEREOF” (FARNEX INCORPORATED, priority 2021, published 2024).

Assays:
[1] = Gel formation test with water; format: physicochemical; conditions: amphiphilic compound mixed with water alone, no phospholipid
Description: (§1) The precursor formulations Nos. 1 to 23 were subjected to gel formation test. A portion (about 100 to 300 mg) of each precursor formulation was added to an excess amount (about 0.5 to 2 mL) of water for injection in a vial, and the whole was mixed at room temperature (25° C.) with a spatula and/or a vortex mixer.
The precursor formulations Nos. 26 to 31 were subjected to gel formation test in a similar manner to that in Example 2.
as §1, with “Nos. 36” for “Nos. 1”, “to 40” for “to 23”

[2] = SAXS liquid crystal structure analysis of gel compositions; format: physicochemical; conditions: amphiphilic compound mixed with water alone
Description: The gel compositions formed from the precursor formulations Nos. 1 to 23 were each directly embedded in a pinhole slit and subjected to small-angle X-ray scattering diffractometry with a small-angle x-ray scattering (SAXS) apparatus (manufactured by Rigaku Corp., Nano-Viewer) to analyze the non-lamellar liquid crystal structure.
The obtained liquid crystal phases and scattering vector values q1 [nm^−1] of peaks located at the smallest angle are shown in Tables 1 and 2. […] There were some gel compositions having two types of different liquid crystal phases.

gel composition formation [1]	liquid crystal phase [2]	q1 [2] [nm⁻¹]	Compound
failed to form a gel composition			CCCCC/C=C\C/C=C\CCCCCCCC(=O)OCCC(C)(C)O [3-methyl-1,3-butanediol monolinoleate]
formed a gel composition	HII	1.35	CCCCCCCC/C=C\CCCCCCCC(=O)OCCOCCO [diethylene glycol monooleate, Diethylene glycol monooleate]
failed to form a gel composition			CCCCC/C=C\C/C=C\CCCCCCCC(=O)OC1COC2C(O)COC12 (stereo not drawn) [isosorbide monolinoleate]
failed to form a gel composition			CCCCC/C=C\C/C=C\CCCCCCCC(=O)OCCC(C)O (stereo not drawn) [1,3-Butylene glycol monolinoleate]
